Where “and” joins values, the source holds several entries; their conditions need not be identical. Equal values may be shown once. Read-outs that look alike come from different tables or passages of the source.
Assays:
[1] = format: physicochemical, dog; conditions: for Bench top stability, Mean concentration / Bench top stability, RE % (mean vs nominal): dog, 17 h
Method: (§1) For the remaining validation tests, a calibration curve and triplicates QCs at the low, mid and high levels were analyzed with each sample set. The following samples were also analyzed either in conjunction with one of the precision and accuracy runs or in one of the additional validation runs: Samples from six lots of control dog plasma for specificity. Two concentration levels of unextracted QC-samples in triplicate (solvent standards) were analyzed for the evaluation of the recovery of sodium 2,2-dimethylbutyrate and DMV in dog plasma. Two levels of QC samples (Low QC and High QC in triplicate) were subjected to three freeze/thaw cycles at approximately −70° C. prior to extraction to evaluate freeze/thaw stability. Two levels of QC samples (Low QC and High QC in triplicate) were placed on the bench top for approximately 17 hours prior to extraction for the evaluation of the bench top stability. Triplicate low QC samples and triplicate high QC samples were stored for one month and three months in a freezer at approximately −70° C., and then extracted and analyzed to evaluate long term stability in dog plasma. Three aliquots of a dilution QC sample diluted 10-fold.
(§2) Bench top stability was evaluated at room temperature for approximately 17 hours. Triplicate QC-Low and QC-High samples were extracted and analyzed after these storage conditions. The CV % values for the QC-Low and QC-High stability samples are 3.2% and 3.4%, respectively. To calculate the RE %, the measured mean concentration was compared to the nominal concentration. The RE % values for the QC-Low and QC-High stability samples are 2.1% and −10.7%, respectively.

[2] = Bench top stability in rat plasma; format: physicochemical; conditions: for Bench top stability, RE % (mean vs nominal): room temperature approximately 12.5 hours
Method: as §1, with “rat” for “dog”, “specificity; Samples from six lots of control rat plasma fortified with internal standard for specificity;” for “specificity.”, “rat plasma;” for “dog plasma.”, “stability;” for “stability.”
as §2, with “12.5” for “17”, “6.3%” for “3.2%”, “11.7%,” for “3.4%,”, “7.6%” for “2.1%”, “9.1%,” for “−10.7%,”

[3] = Short-term stability in human urine at room temperature; format: physicochemical; conditions: unextracted, bench-top light, six hours, 0.3, 19 and 38 μg/ml
Method: The applicability of the testing methodology to analyze samples stored under different conditions was analyzed. First, to assess short-term stability of DMB in human urine, samples at 0.3, 19 and 38 μg/ml, 92.3% of DMB were maintained unextracted at room temperature and at bench-top light levels for six hours. […] Second, to assess freeze/thaw stability of DMB in human urine, samples at 0.3, 19 and 38 μg/ml, 92.3% of DMB were stored at −70° C. and thawed. This process was repeated twice and samples after each freezing were analyzed for DMB as described. For each concentration and each freezing/thawing sample, the % CV was no more than 15%.

CCC(C)(C)C(=O)[O-].[Na+] [Sodium 2,2-Dimethylbutyrate]
Time stable on bench top ([1]; dog plasma, ambient bench top storage): approximately 17 hours
Bench top stability, Mean concentration ([1]; 0.6 μg/mL): 0.613 µg/mL
Bench top stability, RE % (mean vs nominal) ([1]; 0.6 μg/mL): 2.1%
Bench top stability, Mean concentration ([1]; 40 μg/mL): 35.7 µg/mL
Bench top stability, RE % (mean vs nominal) ([1]; 40 μg/mL): −10.7%
Time stable on bench top ([2]; ambient bench top storage): approximately 12.5 hours
Measured concentration, QC-Low ([2]; bench top room temperature, nominal 0.60 μg/mL, individual replicates): 0.600 µg/mL and 0.677 µg/mL and 0.660 µg/mL
Measured concentration, QC-High ([2]; bench top room temperature, nominal 40.0 μg/mL, individual replicates): 45.6 µg/mL and 37.9 µg/mL and 47.4 µg/mL
Mean concentration, QC-Low ([2]; bench top, nominal 0.60 μg/mL): 646 ng/mL
RE %, QC-Low ([2]; bench top, nominal 0.60 μg/mL): 7.6%
Mean concentration, QC-High ([2]; bench top, nominal 40.0 μg/mL): 43600 ng/mL
RE %, QC-High ([2]; bench top, nominal 40.0 μg/mL): 9.1%
Bench top stability, RE % (mean vs nominal) ([2]; QC-High): 9.1%
Bench top stability, RE % (mean vs nominal) ([2]; QC-Low): 7.6%
Short-term stability in human urine [3]: stable

Reference: patent publication US20110033946A1, “DETECTION OF SHORT-CHAIN FATTY ACIDS IN BIOLOGICAL SAMPLES” (HEMAQUEST PHARMACEUTICALS, INC., priority 2009, published 2011)
